According to the supplement of paper PMC10307832:

How the values were obtained:
Assay in all cases: relative viability (nuclei count vs DMSO), 5 days (fraction); higher = more cells survive
A549 = test system: A549
Method in brief: (§1)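 Each reported value is a median over duplicate plates. It expresses relative viability: treated-well nuclei count divided by vehicle-well nuclei count. Lung cancer cell lines in 1536-well plates were dosed by pin tool a day after seeding, alone with one drug or with a fixed anchor-drug dose plus five library-drug doses (not always all listed) in √10 steps, and nuclei were counted after 5 days.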

Calu-6 = test system: Calu-6
Method in brief: as §1

EBC-1 = test system: EBC-1
Method in brief: as §1

HCC-366 = test system: HCC-366
Method in brief: as §1

HCC-44 = test system: HCC-44
Method in brief: as §1

IA-LM = test system: IA-LM
Method in brief: as §1

NCI-H1299 = test system: NCI-H1299
Method in brief: as §1

NCI-H1437 = test system: NCI-H1437
Method in brief: as §1

NCI-H1703 = test system: NCI-H1703
Method in brief: as §1

## O=C(O)c1ccc(-c2c[nH]c3ncc(-c4ccccc4)cc23)cc1C1CCCC1 + CS(=O)(=O)N1CCN(Cc2cc3nc(-c4cccc5[nH]ncc45)nc(N4CCOCC4)c3s2)CC1 [Pictilisib] (partner 1 µM)
A549; first compound 0.04 µM
  relative viability: 0.508
A549; first compound 0.1265 µM
  relative viability: 0.537
A549; first compound 0.4 µM
  relative viability: 0.504
A549; first compound 1.265 µM
  relative viability: 0.291
Calu-6; first compound 0.04 µM
  relative viability: 0.896
Calu-6; first compound 0.1265 µM
  relative viability: 1.05
Calu-6; first compound 0.4 µM
  relative viability: 0.822
Calu-6; first compound 1.265 µM
  relative viability: 0.667
EBC-1; first compound 0.04 µM
  relative viability: 0.43
EBC-1; first compound 0.1265 µM
  relative viability: 0.371
EBC-1; first compound 0.4 µM
  relative viability: 0.345
EBC-1; first compound 1.265 µM
  relative viability: 0.327
HCC-366; first compound 0.04 µM
  relative viability: 0.136
HCC-366; first compound 0.1265 µM
  relative viability: 0.192
HCC-366; first compound 0.4 µM
  relative viability: 0.138
HCC-366; first compound 1.265 µM
  relative viability: 0.153
HCC-44; first compound 0.04 µM
  relative viability: 0.697
HCC-44; first compound 0.1265 µM
  relative viability: 0.676
HCC-44; first compound 0.4 µM
  relative viability: 0.668
HCC-44; first compound 1.265 µM
  relative viability: 0.56
IA-LM; first compound 0.04 µM
  relative viability: 0.437
IA-LM; first compound 0.1265 µM
  relative viability: 0.363
IA-LM; first compound 0.4 µM
  relative viability: 0.344
IA-LM; first compound 1.265 µM
  relative viability: 0.402
NCI-H1299; first compound 0.04 µM
  relative viability: 0.832
NCI-H1299; first compound 0.1265 µM
  relative viability: 0.809
NCI-H1299; first compound 0.4 µM
  relative viability: 0.69
NCI-H1299; first compound 1.265 µM
  relative viability: 0.584
NCI-H1437; first compound 0.04 µM
  relative viability: 0.489
NCI-H1437; first compound 0.1265 µM
  relative viability: 0.446
NCI-H1437; first compound 0.4 µM
  relative viability: 0.371
NCI-H1437; first compound 1.265 µM
  relative viability: 0.263
NCI-H1703; first compound 0.04 µM
  relative viability: 0.262
NCI-H1703; first compound 0.1265 µM
  relative viability: 0.298
NCI-H1703; first compound 0.4 µM
  relative viability: 0.272
NCI-H1703; first compound 1.265 µM
  relative viability: 0.224

## O=C(O)c1ccc(-c2c[nH]c3ncc(-c4ccccc4)cc23)cc1C1CCCC1 + C[C@@H](Oc1cc(-c2cnn(C3CCNCC3)c2)cnc1N)c1c(Cl)ccc(F)c1Cl [Crizotinib] (partner 1 µM)
A549; first compound 0.04 µM
  relative viability: 0.795
A549; first compound 0.1265 µM
  relative viability: 0.776
A549; first compound 0.4 µM
  relative viability: 0.668
A549; first compound 1.265 µM
  relative viability: 0.44
Calu-6; first compound 0.04 µM
  relative viability: 0.828
Calu-6; first compound 0.1265 µM
  relative viability: 0.777
Calu-6; first compound 0.4 µM
  relative viability: 0.72
Calu-6; first compound 1.265 µM
  relative viability: 0.636
EBC-1; first compound 0.04 µM
  relative viability: 0.185
EBC-1; first compound 0.1265 µM
  relative viability: 0.217
EBC-1; first compound 0.4 µM
  relative viability: 0.185
EBC-1; first compound 1.265 µM
  relative viability: 0.191
HCC-366; first compound 0.04 µM
  relative viability: 0.502
HCC-366; first compound 0.1265 µM
  relative viability: 0.686
HCC-366; first compound 0.4 µM
  relative viability: 0.619
HCC-366; first compound 1.265 µM
  relative viability: 0.696
HCC-44; first compound 0.04 µM
  relative viability: 0.764
HCC-44; first compound 0.1265 µM
  relative viability: 0.823
HCC-44; first compound 0.4 µM
  relative viability: 0.812
HCC-44; first compound 1.265 µM
  relative viability: 0.577
IA-LM; first compound 0.04 µM
  relative viability: 0.698
IA-LM; first compound 0.1265 µM
  relative viability: 0.772
IA-LM; first compound 0.4 µM
  relative viability: 0.893
IA-LM; first compound 1.265 µM
  relative viability: 0.835
NCI-H1299; first compound 0.04 µM
  relative viability: 0.966
NCI-H1299; first compound 0.1265 µM
  relative viability: 0.952
NCI-H1299; first compound 0.4 µM
  relative viability: 0.916
NCI-H1299; first compound 1.265 µM
  relative viability: 0.868
NCI-H1437; first compound 0.04 µM
  relative viability: 1.03
NCI-H1437; first compound 0.1265 µM
  relative viability: 0.959
NCI-H1437; first compound 0.4 µM
  relative viability: 0.874
NCI-H1437; first compound 1.265 µM
  relative viability: 0.839
NCI-H1703; first compound 0.04 µM
  relative viability: 0.482
NCI-H1703; first compound 0.1265 µM
  relative viability: 0.85
NCI-H1703; first compound 0.4 µM
  relative viability: 0.669
NCI-H1703; first compound 1.265 µM
  relative viability: 0.647

## O=C(O)c1ccc(-c2c[nH]c3ncc(-c4ccccc4)cc23)cc1C1CCCC1 + C[C@]1(O)C[C@@H](c2nc(-c3ccc4ccc(-c5ccccc5)nc4c3)c3c(N)nccn32)C1 [Linsitinib] (partner 1 µM)
A549; first compound 0.04 µM
  relative viability: 0.622
A549; first compound 0.1265 µM
  relative viability: 0.719
A549; first compound 0.4 µM
  relative viability: 0.717
A549; first compound 1.265 µM
  relative viability: 0.505
Calu-6; first compound 0.04 µM
  relative viability: 0.86
Calu-6; first compound 0.1265 µM
  relative viability: 1.17
Calu-6; first compound 0.4 µM
  relative viability: 0.892
Calu-6; first compound 1.265 µM
  relative viability: 0.781
EBC-1; first compound 0.04 µM
  relative viability: 0.862
EBC-1; first compound 0.1265 µM
  relative viability: 0.903
EBC-1; first compound 0.4 µM
  relative viability: 0.956
EBC-1; first compound 1.265 µM
  relative viability: 0.697
HCC-366; first compound 0.04 µM
  relative viability: 0.657
HCC-366; first compound 0.1265 µM
  relative viability: 0.759
HCC-366; first compound 0.4 µM
  relative viability: 0.882
HCC-366; first compound 1.265 µM
  relative viability: 0.573
HCC-44; first compound 0.04 µM
  relative viability: 0.664
HCC-44; first compound 0.1265 µM
  relative viability: 0.636
HCC-44; first compound 0.4 µM
  relative viability: 0.515
HCC-44; first compound 1.265 µM
  relative viability: 0.57
IA-LM; first compound 0.04 µM
  relative viability: 0.558
IA-LM; first compound 0.1265 µM
  relative viability: 0.685
IA-LM; first compound 0.4 µM
  relative viability: 0.712
IA-LM; first compound 1.265 µM
  relative viability: 0.513
NCI-H1299; first compound 0.04 µM
  relative viability: 0.933
NCI-H1299; first compound 0.1265 µM
  relative viability: 1.02
NCI-H1299; first compound 0.4 µM
  relative viability: 1.04
NCI-H1299; first compound 1.265 µM
  relative viability: 0.918
NCI-H1437; first compound 0.04 µM
  relative viability: 1.03
NCI-H1437; first compound 0.1265 µM
  relative viability: 1.09
NCI-H1437; first compound 0.4 µM
  relative viability: 0.969
NCI-H1437; first compound 1.265 µM
  relative viability: 0.55
NCI-H1703; first compound 0.04 µM
  relative viability: 0.647
NCI-H1703; first compound 0.1265 µM
  relative viability: 1.06
NCI-H1703; first compound 0.4 µM
  relative viability: 1.06
NCI-H1703; first compound 1.265 µM
  relative viability: 0.898
